# Test system: BTCI
# Assay: Fluorescence quenching of BTCI by Bk-related peptides
# Assay type: binding, Vigna unguiculata
# Conditions: for Binding constant Kb (association) of BTCI in complex with peptide / Stern-Volmer quenching constant KSV of BTCI in complex with peptide: BTCI 25 µM, peptide 25-500 µM; for Stern-Volmer quenching constant KSV of BTCI in complex with peptide: excitation 295 nm, emission at 355 nm
# Description: Fluorescence measurements were performed at pH 5.0, 7.4 and 9.0 and 25 °C using the Jasco FP-6500 spectrofluorimeter (Jasco Analytical Instruments) coupled to a Jasco ETC-273T Peltier system (Jasco Analytical Instruments) with water circulation. Both excitation and emission slit were fitted to 5.0 nm and the excitation and emission wavelength were 295 nm and 300–400 nm, respectively. The concentration of BTCI was 25 µM, whereas the concentration of Bk and Bk-related peptides varied from 25 to 500 µM. The BTCI in complex with peptides were investigated by fluorescence quenching as a function of pH. The averages of five fluorescence spectra were recorded and processed by the program Spectra Manager (Jasco Analytical Instruments). The fluorescence emissions were fitted according to the classic Stern-Volmer equation (Equation (2)): F0/F = 1 + KSV[Q] (2) where F and F0 are the fluorescence intensities in the presence and absence of quencher, respectively, KSV is Stern-Volmer constant and Q is the concentration of the quencher.
# The binding constants for BTCI, Bk and Bk-related peptides interaction were calculated according to Equation (3): Log[(F0 − F)/F] = LogKb + nLog[Q] (3) where Kb is the binding constant and n is the number of binding sites per BTCI [47].
substance,measurement,setting,value
[Val]^1[Thr]^6-bradykinyl-Gln-Ser [Bk2],binding sites (n) per BTCI molecule,"pH 5.0, 25 °C",1.04
same,Binding constant Kb (association) of BTCI in complex with peptide,"pH 5.0, 25 °C",590 M⁻¹
same,Stern-Volmer quenching constant KSV of BTCI in complex with peptide,"pH 5.0, 25 °C",425 M⁻¹
same,binding sites (n) per BTCI molecule,"pH 7.4, 25 °C",0.89
same,Binding constant Kb (association) of BTCI in complex with peptide,"pH 7.4, 25 °C",220 M⁻¹
same,Stern-Volmer quenching constant KSV of BTCI in complex with peptide,"pH 7.4, 25 °C",509 M⁻¹
same,binding sites (n) per BTCI molecule,"pH 9.0, 25 °C",1.23
same,Binding constant Kb (association) of BTCI in complex with peptide,"pH 9.0, 25 °C",1810 M⁻¹
same,Stern-Volmer quenching constant KSV of BTCI in complex with peptide,"pH 9.0, 25 °C",384 M⁻¹

# From PMC6271500, “Bowman-Birk Protease Inhibitor from Vigna unguiculata Seeds Enhances the Action of Bradykinin-Related Peptides” (Molecules, 2014)
